Where no end group is shown, it is not given here.
B1: MLQKKIEEIAAKYKHSVVKKCCYDGASVNNDETCEQRAARISLGPRCIKAFTECCVVASQLRANISHKDMQLGR (protein, listed as Homo sapiens)
chain: MLQKKIEEIAAKYKHSVVKKCCYDGASVNNDETCEQRAARISLGPRCIKAFTECCVVASQLRANISHKDMQLGR
notes: full length human complement component C5a peptide

Key:
human neutrophils [1] = assay: chemotaxis of human neutrophils in chemotactic chambers; type: cell-based; details: for chemotactic activity of KLH conjugate compared to C5a peptide: calculated synthetic peptide concentration 100 nM, peptide:KLH approximately 3:1; for chemotactic response to peptide in medium alone: 1 μM peptide; for reduction in the chemotactic responses of neutrophils to human C5a: 1 μM peptide with 10 μM human C5a
Method: This Example describes the ability of certain synthetic peptides representative of regions of human C5a peptide to reduce the chemotactic response of human neutrophils to human C5a peptide. Human neutrophils were isolated from human blood by traditional Ficoll-Hypaque sedimentation techniques. Using standardized methodology, neutrophils (5×10^6/ml) labeled with 1 μg/ml BCECF [2′,7′-(2 carboxyethyl)-5-(and-6)-carboxyfluroscein, acetoxymethy ester) at 37° C. for 30 min, were applied to the upper compartments of […] The two compartments were separated by a membrane with pore sizes of 3 μm. Neutrophil chemotactic responses were quantitated by cytofluorometry.
[…] Peptide A (SEQ ID NO:4) represents residues 1-20 of human C5a peptide, peptide M (SEQ ID NO: 5) represents residues 21-40 of human C5a peptide, and peptide C (SEQ ID NO:6) represents residues 55-74 of human C5a peptide.
This Example describes neutrophil chemotactic activity of peptides A, M, and C linked to keyholelimpet hemocyanin (KLH) employing the chemotactic assay described in Example 7. The peptide:KLH molar ratios employed were approximately 3:1. […]

human neutrophils [2] = assay: competition with 125I-hC5a peptide binding to human neutrophils; details: ratio of peptide to labelled hC5a 10:1
Excerpt: This Examples describes certain peptides which are able to antagonize the ability of human C5a peptide to bind to human neutrophils. Three different peptides, labelled A, M, and C, were used to antagonize the binding of ^125I-hC5a peptide to human neutrophils. Again, peptide A (SEQ ID NO:4) represents residues 1-20 of human C5a peptide, peptide M (SEQ ID NO: 5) represents residues 21-40 of human C5a peptide, and peptide C (SEQ ID NO:6) represents residues 55-74 of human C5a peptide.
Human peripheral blood neutrophils (1×10^7 cells/ml) were incubated in Hank's buffered saline plus 0.1% bovine serum albumin with both ^123]-labelled hC5a peptide (300 μCi/nmol) and either peptide A, M, or C, in a final volume of 200 μl in a microfuge tube. The ratio of the shorter peptides (A, M, or C) to ^1251]-labelled hC5a peptide was 10:1. After incubation, cell suspension were layered over a 20% sucrose gradient and were sedimented by centrifugation at 11,000 g. The tubes were then frozen on dry ice, followed by cutting the tips containing the pellet. Cell-bound label was then determined by placing the tips in a gamma counter.

human neutrophils [3] = assay: H2O2 production of human neutrophils stimulated by PMA; type: cell-based; details: for inhibition of PMA-elicited H2O2 response: neutrophils pretreated with peptide, then PMA
Excerpt: This Example describes the effect of human C5a peptide, and certain shorter synthetic human C5a peptides A, M, or C, to inhibit the H2O2 production of human neutrophils stimulated by phorbol myristate acetate (PMA). Again, peptide A (SEQ ID NO:4) represents residues 1-20 of human C5a peptide, peptide M (SEQ ID NO: 5) represents residues 21-40 of human C5a peptide, and peptide C (SEQ ID NO:6) represents residues 55-74 of human C5a peptide. Human neutrophils were isolated and then pretreated with C5a peptide or one of the shorter synthetic peptides (A, M, or C). Cells were then stimulated with PMA and the production of H2O2 was measured.

[4] = target: human peripheral blood neutrophils (surface sites that bind human C5a peptide) (human) (UniProt P21730); assay: cell-based or functional assay
UniProt P21730, sequence (P21730 whole entry): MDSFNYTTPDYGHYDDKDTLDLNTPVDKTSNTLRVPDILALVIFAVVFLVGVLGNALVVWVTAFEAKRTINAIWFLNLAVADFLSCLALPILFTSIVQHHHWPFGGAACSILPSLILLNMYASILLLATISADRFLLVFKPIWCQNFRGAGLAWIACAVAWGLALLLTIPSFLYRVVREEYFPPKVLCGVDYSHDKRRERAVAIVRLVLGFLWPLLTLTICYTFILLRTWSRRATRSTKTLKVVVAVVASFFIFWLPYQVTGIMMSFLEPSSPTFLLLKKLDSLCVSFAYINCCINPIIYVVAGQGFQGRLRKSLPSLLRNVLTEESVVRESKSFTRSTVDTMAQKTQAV

[5] = target: rat C5a peptide (full length) (rat) (UniProt P08650); assay: flow cytometry on rat blood neutrophils, control stain
UniProt P08650, sequence (P08650 679-755 limits assumed): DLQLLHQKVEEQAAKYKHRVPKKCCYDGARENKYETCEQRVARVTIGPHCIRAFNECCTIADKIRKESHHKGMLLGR

Row | Molecule | chemotactic activity of KLH conjugate compared to C5a peptide (human neutrophils [1]) | reducing the binding of hC5a peptide to human neutrophils (human neutrophils [2]) | chemotactic response to peptide in medium alone (human neutrophils [1]) | reduction in the chemotactic responses of neutrophils to human C5a (human neutrophils [1]) | inhibition of PMA-elicited H2O2 response (human neutrophils [3]) | further results
1 | C peptide conjugate: peptide C (SEQ ID NO:6) linked to keyhole limpet hemocyanin, peptide:KLH approximately 3:1 (CVVASQLRANISHKDMQLGR; also: linked to keyhole limpet hemocyanin, peptide:KLH ~3:1) | almost as active | – | – | – | – | –
2 | CCYDGASVNNDETCEQRAAR (listed as Homo sapiens) [peptide M, residues 21-40 of human C5a peptide] | – | significantly (p<0.05) competitive | did not per se induce any chemotactic responses | approximately 20% | strongest suppression | –
3 | M peptide conjugate: peptide M (SEQ ID NO:5) linked to keyhole limpet hemocyanin, peptide:KLH approximately 3:1 (CCYDGASVNNDETCEQRAAR; cysteine pairing not given here; also: linked to keyhole limpet hemocyanin, peptide:KLH ~3:1) | no chemotactic activity | – | – | – | – | –
4 | A peptide KLH conjugate: peptide A (SEQ ID NO:4) linked to keyhole limpet hemocyanin, peptide:KLH approximately 3:1 (MLQKKIEEIAAKYKHSVVKK; also: linked to keyhole limpet hemocyanin, peptide:KLH ~3:1) | most chemotactically active | – | – | – | – | –
5 | peptide C (residues 55-74 of human C5a peptide) | – | – | – | – | – | chemotactic responses of neutrophils to human C5a [4]: 20%
6 | MLQKKIEEIAAKYKHSVVKK (listed as Homo sapiens) [peptide A, residues 1-20 of human C5a peptide] | – | significantly (p<0.05) competitive | did not per se induce any chemotactic responses | approximately 20% | to varying degrees | –
7 | preimmune IgG (antibody) | – | – | – | – | – | Mean Channel Fluorescence (binding value) (MCF (mean ± SEM)) [5]: 4.45
8 | CVVASQLRANISHKDMQLGR (listed as Homo sapiens) [peptide C, residues 55-74 of human C5a peptide] | – | no statistically significant interference | did not per se induce any chemotactic responses | approximately 20% | to varying degrees | –
9 | B1 | – | – | – | – | inhibitable | effect on H2O2 production, peptide alone (human neutrophils [3]; without PMA): no effect
